How the values were obtained:
[1] = Particle size and polydispersity index (PDI) by Dynamic Light Scattering; type: physicochemical; settings: for “Ready-to-use” S2P RNA formulation PDI / “Ready-to-use” S2P RNA formulation Size: 48/40.5/10/1.5 mol %, blank-LNP added to lyophilized S2P RNA (55 ug/vial), N/P 7; for Blank-LNP PDI / Blank-LNP Size: 48/40.5/10/1.5 mol % ionizable lipid/cholesterol/DSPC/DMG-PEG
Method: (§1) Lipid nanoparticles (LNPs) were formed or formulated by rapid mixing of an ethanol phase and an aqueous phase using a microfluidic device. The aqueous phase included a 50 mM citrate buffer (pH 5.5). The ethanol phase included an ionizable lipid (as described herein), cholesterol (Jiangsu Southeast Nanomaterials), 1,2-diastearoyl-sn-glycero-3-phosphocholine (DSPC) (Jiangsu Southeast Nanomaterials) and 1,2-dimyristoyl-rac-glycero-3-methoxypolyethylene glycol-2000 (DMG-PEG2000) (SINOPEG). A series of ionizable lipids were evaluated. These four lipid components were mixed at defined molar ratios in ethanol, for instance, at a molar ratio of 48:40.5:10:1.5 (ionizable lipid:cholesterol:DSPC:DMG-PEG2000). The generated LNP particles were purified in citrate buffer (containing sucrose) and characterized with respect to particle size, polydispersity index (PDI) and ionizable lipid concentration. The LNP solution was then diluted to the target concentration and stored at 2-8° C.
(§2) In the case of a filled LNP, for example, an LNP-encapsulated S-2P RNA liquid drug product, the preparation protocol is essentially the same, except that it was an aqueous solution of S-2P RNA in citrate buffer pH 5-6 that constitutes the aqueous phase for LNP formation. The LNP-encapsulated RNA formulation is also referred to as “RNA-LNP” in this disclosure. Regarding characterization, particle size and polydispersity index (PDI) of the RNA-LNP were determined by Dynamic Light Scattering (DLS); RNA encapsulation efficiency and concentration were determined by means of Ribogreen® assay and RNA purity was determined by agarose gel electrophoresis.
(§3) The “ready-to-use” RNA product was manufactured by transferring a predetermined amount of already formed LNP in solution to a sealed vial containing the lyophilized RNA composition, followed by mixing at room temperature. The amount of LNP added per vial (e.g., 30-100 μg RNA per vial) was determined based on the molar ionizable lipid:RNA (N/P) molar ratio of 7. In this disclosure, “ready-to-use” S-2P RNA formulations (also referred to as “LNP(S-2P RNA)”) containing 30-100 μg/mL S-2P RNA were prepared, and then characterized with respect to particle size, polydispersity index, as well as RNA concentration, complexation efficiency, and purity using the same methods as described above in Example 3.

[2] = test system: BHK-21 cells; type: cell-based; settings: ready-to-use S2P RNA, 4 μg, 48 hours post transfection; 48/40.5/10/1.5 mol %
[3] = test system: Vero E6 cells; type: cell-based; settings: ready-to-use S2P RNA, 4 μg, 48 hours post transfection; 48/40.5/10/1.5 mol %
[4] = Stability of blank-LNP at 2-8° C. (particle size, PDI); type: physicochemical; settings: blank-LNP 48/40.5/10/1.5 mol %
Method: as §1
Each generated blank-LNP formulation was added to and mixed with lyophilized S2P RNA, altogether yielding a series of “ready-to-use” S2P RNA test items containing the different ionizable lipids. The pharmaceutical characteristics (Table 3) and in vitro transfection efficiency (Table 4) of these “ready-to-use” RNA test items were compared head-to-head. In parallel, the stability profiles of these […] blank-LNP formulations (i.e. without RNA complexation) were assessed at 2-8° C. (see Table 5).
The generated fourteen blank-LNP formulations were characterized in terms of particle size and PDI, both at the end of manufacturing (T=0) and 8-week storage at 2-8° C. […] (defined as size increase ≤20 nm in 8 weeks), namely DMG-PEG2000 between at least 1-4 mol %, DSPC between at least 5-20 mol %, ionizable lipid between at least 30-70 mol % and cholesterol between at least 18.5-58.5 mol %.

[5] = RNA encapsulation/complexation efficiency by Ribogreen assay; type: physicochemical; settings: 48/40.5/10/1.5 mol %; blank-LNP added to lyophilized S2P RNA (55 ug/vial), N/P 7
Method: as §2, §3

[6] = various LNP batches, different molar ratios of ionizable lipid:cholesterol:DSPC:DMG-PEG2000

Row | Compound | “Ready-to-use” S2P RNA formulation PDI [1] | “Ready-to-use” S2P RNA formulation Size [1] [nm] | Blank-LNP PDI [1] | Blank-LNP Size [1] [nm] | RBD expression in BHK-21 cells [2] | RBD expression in Vero E6 cells [3] | Change in size (nm) vs. T0, T = 1 month [4] | PDI, T = 1 month [4] | Size, T = 1 month [4] [nm] | Change in size (nm) vs. T0, T = 1 month ([4]; listed as #2) | Change in size (nm) vs. T0, T = 2 weeks [4] | PDI, T = 2 weeks [4] | Size, T = 2 weeks [4] [nm] | PDI, T = 0 [4] | Size, T = 0 [4] [nm] | “Ready-to-use” S2P RNA formulation RNA complexation efficiency [5] [%] | particle size [1, 6] [nm] | polydispersity index [1, 6]
1 | CCCCCCCCCOC(=O)CCCCCCCOc1ccc(OCCCCCCCC(=O)OCCCCCCCCC)c(COC(=O)CCCN(C)C)c1 [Lipid #2] | 0.21 | 211 | 0.09 | 120 | 1.34 ng/mL | 0.97 ng/mL | unaltered size | 0.07 | 121 | +1 nm | +2 nm | 0.09 | 122 | 0.09 | 120 | – | – | –
2 | CCCCCCCCCCC(CCCCCCCCCC)C(=O)OCCCCCCOc1ccc(OCCCCCCOC(=O)C(CCCCCCCCCC)CCCCCCCCCC)c(COC(=O)CCCN(C)C)c1 [Lipid #8] | 0.11 | 130 | 0.13 | 86 | <LOD | <LOD | – | 0.17 | 90 | – | −3 nm | 0.07 | 83 | 0.13 | 86 | 34 | – | –
3 | CCCCCCCCCOC(=O)CCCCCCCOc1ccc(OCCCCCCCC(=O)OC(CCCCCCCC)CCCCCCCC)c(COC(=O)CCCN(C)C)c1 [Lipid #5] | 0.13 | 137 | 0.2 | 91 | – | – | – | 0.14 | 93 | – | −1 nm | 0.13 | 90 | 0.20 | 91 | 44 | 80±15 | 0.10±0.05
4 | CCCCCC/C=C/COC(=O)CCCCCCCCC(CCCCCCCCC(=O)OC/C=C/CCCCCC)OC(=O)CCCN(C)C [Lipid #9] | 0.18 | 280 | 0.09 | 207 | 0.50 ng/mL | 0.16 ng/mL | +22 nm | 0.10 | 229 | – | +7 nm | 0.05 | 214 | 0.09 | 207 | 34 | – | –
5 | CCCCCCCCOC/C=C\COC(=O)CCCCCCCCC(CCCCCCCCC(=O)OC(CCCCCCCC)CCCCCCCC)OC(=O)CCCN(C)C (stereo not shown) [Lipid #12] | 0.14 | 172 | 0.04 | 85 | 0.19 ng/mL | <LOD | +12 nm | 0.11 | 97 | – | +8 nm | 0.06 | 93 | 0.04 | 85 | 27 | – | –
6 | CC/C=C/CCCC(CCC/C=C/CC)OC(=O)CCCCCCCC(CCCCCCCC(=O)OC/C=C/CCCCCC)COC(=O)CCCN(C)C (stereo not shown) [Lipid #10] | 0.21 | 204 | 0.05 | 91 | 0.33 ng/mL | 0.25 ng/mL | +29 nm | 0.21 | 120 | – | +16 nm | 0.11 | 107 | 0.05 | 91 | 34 | – | –
